# From US12336981B2, “Compounds and compositions for the inhibition of NAMPT” (Valo Health, Inc., priority 2010, dated 2025)
# Read-outs that look alike come from different tables or passages of the source.
# How the values were obtained:
# A2780 cells = assay: In-vitro cell proliferation assay (SRB), A2780 cells; format: cell-based; settings: Homo sapiens, A2780, 72 h, A2780 cells, 72 hours, read-out: A2780 IC50
# Procedure, shortened: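 SRB read-out: 6% TCA fix 1 h at 4° C., stain, Tris solubilize, A570. Media-only background subtracted; % inhibition from two compound concentrations.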
# NAMPT = molecular target: T1, NAMPT (Homo sapiens, UniProt P43490); assay: Biochemical inhibition assay: NAMPT enzymatic reaction, NMN quantified by mass spectrometry; settings: read-out: Biochem IC50
# T1 construct: His tag; host or cells: E. coli
# Procedure, shortened: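 Inhibition of E. coli-expressed His-tagged human NAMPT, measured as NMN formation by mass spectrometry after a 30 min room-temperature reaction containing 1 μM NAM, 100 μM PRPP and 2.5 mM ATP.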
# T1 sequence (P43490 whole entry): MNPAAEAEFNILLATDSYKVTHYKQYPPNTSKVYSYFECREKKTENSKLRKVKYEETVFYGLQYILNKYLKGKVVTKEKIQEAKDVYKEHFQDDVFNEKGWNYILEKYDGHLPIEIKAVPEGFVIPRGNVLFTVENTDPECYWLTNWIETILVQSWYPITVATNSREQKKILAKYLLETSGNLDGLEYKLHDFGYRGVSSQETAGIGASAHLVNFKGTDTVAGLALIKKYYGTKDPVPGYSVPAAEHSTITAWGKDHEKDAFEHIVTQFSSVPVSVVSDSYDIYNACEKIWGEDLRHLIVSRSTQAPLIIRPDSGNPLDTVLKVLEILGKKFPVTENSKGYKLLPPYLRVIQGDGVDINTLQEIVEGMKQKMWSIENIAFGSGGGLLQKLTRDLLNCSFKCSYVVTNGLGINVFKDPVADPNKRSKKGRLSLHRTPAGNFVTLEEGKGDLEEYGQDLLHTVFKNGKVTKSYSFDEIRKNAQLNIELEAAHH
SMILES,IC50 (A2780 cells; SRB) [nM],IC50 (NAMPT; NAMPT enzymatic assay) [nM],IC50 (NAMPT; NAMPT enzymatic reaction) [nM],IC50 (A2780 cells; SRB assay) [nM]
CC(C)c1cccc(S(=O)(=O)c2ccc(CNC(=O)c3cc4ccncc4o3)cc2)c1,7,4.5,–,–
CCCOc1ccc(S(=O)(=O)c2ccc(CNC(=O)c3cnc4nccn4c3)cc2)cc1F,3.3,–,2.7,–
"O=C(NCc1ccc(S(=O)(=O)c2ccc(C(F)F)c(F)c2)cc1)c1cnc2nccn2c1 [N-[(4-{[4-(difluoromethyl)-3-fluorobenzene]sulfonyl}phenyl)methyl]imidazo[1,2-a]pyrimidine-6-carboxamide]",27.9,8.2,–,–
Cc1ccc(Cl)c(S(=O)(=O)c2ccc(CNC(=O)c3cnc4[nH]ncc4c3)cc2)c1,65.9,–,60.2,–
"O=C(NCc1ccc(S(=O)(=O)c2cccc(C(F)(F)F)n2)cc1)c1cnc2[nH]ncc2c1 [N-({4-[6-(trifluoromethyl)pyridine-2-sulfonyl]phenyl}methyl)-1H-pyrazolo[3,4-b]pyridine-5-carboxamide]",11.1,24.2,–,–
COc1ccc(S(=O)(=O)c2ccc(CNC(=O)c3cc4ccncc4o3)cc2)cc1OC,3.8,–,6.2,–
"N#Cc1cccc(S(=O)(=O)c2ccc(CNC(=O)c3cc4ccncc4o3)cc2)c1 [N-({4-[(3-cyanobenzene)sulfonyl]phenyl}methyl)furo[2,3-c]pyridine-2-carboxamide]",12.6,–,15.4,–
O=C(NCc1ccc(S(=O)(=O)c2ccc(C3CCCCC3)cc2)cc1)c1cnc2nccn2c1,7.7,–,5.8,–
"Cn1cc(S(=O)(=O)c2ccc(CNC(=O)c3cnc4[nH]ncc4c3)cc2)cn1 [N-{[4-(1-methyl-1H-pyrazole-4-sulfonyl)phenyl]methyl}-1H-pyrazolo[3,4-b]pyridine-5-carboxamide]",100 to 1000,182,–,–
CCCCOc1ccc(Cl)cc1S(=O)(=O)c1ccc(CNC(=O)c2cc3cnccc3[nH]2)cc1,8.3,–,15.6,–
O=C(NCc1ccc(S(=O)(=O)c2ccc(N3CCCC3)cc2)cc1)c1ccc2nccn2c1,1.4,3,–,–
"COc1ccc(NS(=O)(=O)c2ccc(CNC(=O)c3cc4cnccc4[nH]3)cc2)c(C)c1 [N-({4-[(4-methoxy-2-methylphenyl)sulfamoyl]phenyl}methyl)-1H-pyrrolo[3,2-c]pyridine-2-carboxamide]",–,–,1450,> 30000
Cc1cc(-n2cccn2)ccc1S(=O)(=O)c1ccc(CNC(=O)c2cc3ccncc3o2)cc1,6,6.2,–,–
COc1c(C)cc(S(=O)(=O)c2ccc(CNC(=O)c3cnc4nccn4c3)cc2)cc1C,1.3,–,2.7,–
O=C(NCc1ccc(S(=O)(=O)c2ccc(F)c(F)c2)cc1)c1cnc2nccn2c1,36.3,–,4.1,–
"COc1ccc(Cl)cc1NS(=O)(=O)c1ccc(CNC(=O)c2cc3cnccc3[nH]2)cc1 [N-({4-[(5-chloro-2-methoxyphenyl)sulfamoyl]phenyl}methyl)-1H-pyrrolo[3,2-c]pyridine-2-carboxamide]",–,–,197,18000
"CC(=O)c1ccc(S(=O)(=O)c2ccc(CNC(=O)c3cc4ccncc4s3)cc2)cc1 [N-({4-[(4-acetylbenzene)sulfonyl]phenyl}methyl)thieno[2,3-c]pyridine-2-carboxamide]",–,–,4,2.5
COc1ccc(F)c(S(=O)(=O)c2ccc(CNC(=O)c3cc4ccncc4s3)cc2)c1,12.8,–,2.3,–

SMILES,IC50 (A2780 cells; SRB) [nM],IC50 (NAMPT; NAMPT enzymatic assay) [nM],IC50 (NAMPT; NAMPT enzymatic reaction) [nM],IC50 (A2780 cells; SRB assay) [nM]
"O=C(NCc1ccc(S(=O)(=O)N2CC3CCC(C2)O3)cc1)c1cc2cnccc2[nH]1 [N-[(4-{8-oxa-3-azabicyclo[3.2.1]octane-3-sulfonyl}phenyl)methyl]-1H-pyrrolo[3,2-c]pyridine-2-carboxamide]",–,–,8,3
"CC(NC(=O)c1cc2cnccc2[nH]1)c1ccc(S(=O)(=O)N2CCCCC2)cc1 (stereo not drawn) [N-{1-[4-(piperidine-1-sulfonyl)phenyl]ethyl}-1H-pyrrolo[3,2-c]pyridine-2-carboxamide]",–,–,20,7
Cc1cc(C)c(S(=O)(=O)c2ccc(CNC(=O)c3cc4ccncc4o3)cc2)cc1C,14.1,–,9.1,–
"CCOc1ccc(S(=O)(=O)c2ccc(CNC(=O)c3cc4ccncc4o3)cc2)cc1 [N-({4-[(4-ethoxybenzene)sulfonyl]phenyl}methyl)furo[2,3-c]pyridine-2-carboxamide]",7.1,–,2.5,–
"Cc1cc(C)c(S(=O)(=O)c2ccc(CNC(=O)c3ccc4nccn4c3)cc2)cc1C [N-({4-[(2,4,5-trimethylbenzene)sulfonyl]phenyl}methyl)imidazo[1,2-a]pyridine-6-carboxamide]",14.1,–,9.34,–
CCOc1cc(F)ccc1S(=O)(=O)c1ccc(CNC(=O)c2ccc3nccn3c2)cc1,1.5,–,31.4,–
"Cn1ncc2cccc(S(=O)(=O)c3ccc(CNC(=O)c4cc5ccncc5o4)cc3)c21 [N-{[4-(1-methyl-1H-indazole-7-sulfonyl)phenyl]methyl}furo[2,3-c]pyridine-2-carboxamide]",27.5,11.5,–,–
O=C(NCc1ccc(S(=O)(=O)c2cccc(Oc3ccc(F)cc3)c2)cc1)c1ccc2nccn2c1,34,15.1,–,–
"O=C(NCc1ccc(S(=O)(=O)c2cccc3c2OCO3)cc1)c1cnc2nccn2c1 [N-{[4-(2H-1,3-benzodioxole-4-sulfonyl)phenyl]methyl}imidazo[1,2-a]pyrimidine-6-carboxamide]",93.3,2.9,–,–
O=C(NCc1ccc(S(=O)(=O)c2cc(F)ccc2F)cc1)c1cnc2[nH]ncc2c1,392,–,100 to 1000,–
"O=C(NCc1ccc(S(=O)(=O)c2cccc(-c3ccc(F)c(F)c3)n2)cc1)c1cc2cnccc2[nH]1 [N-({4-[6-(3,4-difluorophenyl)pyridine-2-sulfonyl]phenyl}methyl)-1H-pyrrolo[3,2-c]pyridine-2-carboxamide]",12.7,16,–,–
O=C(NCc1ccc(S(=O)(=O)c2ccc(C(F)(F)F)cc2OCC(F)(F)F)cc1)c1cc2cnccc2[nH]1,1,9,–,–
"CCOc1ccccc1S(=O)(=O)c1ccc(CNC(=O)c2cc3ccncc3s2)cc1 [N-({4-[(2-ethoxybenzene)sulfonyl]phenyl}methyl)thieno[2,3-c]pyridine-2-carboxamide]",–,–,2,0.8
"COc1ccc(S(=O)(=O)c2ccc(CNC(=O)c3cc4ccncc4s3)cc2)cc1 [N-({4-[(4-methoxybenzene)sulfonyl]phenyl}methyl)thieno[2,3-c]pyridine-2-carboxamide]",–,–,5,2.7
"O=C(NCc1ccc(S(=O)(=O)c2ccccc2)cc1)c1ccc2cnccc2n1 [N-{[4-(benzenesulfonyl)phenyl]methyl}-1,6-naphthyridine-2-carboxamide]",> 10000,2850,–,–
CCOCc1ccc(S(=O)(=O)c2ccc(CNC(=O)c3cc4cnccc4[nH]3)cc2)cc1,6.8,22.5,–,–
"O=C(NCc1ccc(S(=O)(=O)c2ccc(N3CCOCC3)cc2)cc1)c1cnc2[nH]ncc2c1 [N-[(4-{[4-(morpholin-4-yl)benzene]sulfonyl}phenyl)methyl]-1H-pyrazolo[3,4-b]pyridine-5-carboxamide]",2.47,4.45,–,–
COc1cccc(S(=O)(=O)c2ccc(CNC(=O)c3cnc4[nH]ncc4c3)cc2)c1,10,–,20.9,–
